For assay [1], the system named is Avena sativa. The assay is described as follows: Inhibition of Avena sativa var. Zenshin seed germination assessed as root length at 1 uM after 6 days (reference value: 7 cm). It counts as functional.
Assay [2] relates to Avena sativa. In words: Inhibition of Avena sativa var. Zenshin seed germination assessed as coleoptile length at 1 uM after 6 days (reference value: 9.5 cm). It counts as functional.

Molecules are shown by their SMILES.

In the case of `O=C(Nc1ccccc1)OCCc1ccccc1` [PHENETHYL PHENYLCARBAMATE], the Activity with Avena sativa [1] is 0.2 cm; with Avena sativa [2] it was 0.3 cm.

In the case of `CCCCOC(=O)NCSc1ccccc1` [BUTYL PHENYLTHIOMETHYLCARBAMATE], the Activity in the assay on Avena sativa [1] amounted to 3.4 cm; in the assay on Avena sativa [2], 2.6 cm.

In the case of `COC(=O)NCSc1ccccc1` [METHYL PHENYLTHIOMETHYLCARBAMATE], the Activity in the assay on Avena sativa [1] and in the assay on Avena sativa [2] was 0 cm throughout.

As to `O=C(Nc1ccccc1)OC/C=C/c1ccccc1` [CINNAMYL PHENYLCARBAMATE], the figures for the Activity in the assay on Avena sativa [1] and in the assay on Avena sativa [2] were 0.4 cm and 3.4 cm, respectively.

Take `CCOC(=O)NCSc1ccccc1` [ETHYL PHENYLTHIOMETHYLCARBAMATE]: the Activity in the assay with Avena sativa [1] came out at 1 cm; with Avena sativa [2], 0.8 cm.

As for `COc1ccc(COC(=O)NCSc2ccccc2)cc1` [4-METHOXYBENZYL PHENYLTHIOMETHYLCARBAMATE], the Activity in the assay with Avena sativa [1] turned out to be 0.9 cm; in the assay on Avena sativa [2], 1.4 cm.

Consider `Cc1cccc(NC(=O)Oc2ccccc2)c1` [PHENYL M-TOLYLCARBAMATE], for which the Activity with Avena sativa [1] worked out at 4.4 cm; with Avena sativa [2], 5.6 cm.

In the case of `O=C(Nc1ccc(F)cc1)Oc1ccccc1` [PHENYL 4-FLUOROPHENYLCARBAMATE], the Activity with Avena sativa [1] worked out at 4.8 cm; in the assay with Avena sativa [2] it was 6.4 cm.

Consider `O=C(NCSc1ccccc1)OCCc1ccccc1` [PHENETHYL PHENYLTHIOMETHYLCARBAMATE], for which the Activity in the assay with Avena sativa [1] and with Avena sativa [2] was 0 cm throughout.

For the compound `CC(C)OC(=O)Nc1cccc(Cl)c1` [CHLORPROPHAM], the Activity with Avena sativa [1] and in the assay on Avena sativa [2] was 0 cm each time.

As to `O=C(NCSc1ccccc1)OCCCc1ccccc1` [3-PHENYLPROPYL PHENYLTHIOMETHYLCARBAMATE], the Activity in the assay on Avena sativa [1] came to 3.9 cm; with Avena sativa [2] it was 4.6 cm.

In the case of `O=C(Nc1ccccc1)OCCCCCc1ccccc1` [5-PHENYLPENTYL PHENYLCARBAMATE], the Activity is reported as 2.1 cm in the assay with Avena sativa [1] and 6.6 cm with Avena sativa [2].

Consider `O=C(Nc1ccccc1)OCCCCc1ccccc1` [4-PHENYLBUTYL PHENYLCARBAMATE], for which the results for the Activity in the assay on Avena sativa [1] and in the assay on Avena sativa [2] were 1.2 cm and 4.9 cm, respectively.

Consider `O=C(NCSc1ccccc1)OC/C=C/c1ccccc1` [CINNAMYL PHENYLTHIOMETHYLCARBAMATE], for which the figures for the Activity in the assay on Avena sativa [1] and in the assay on Avena sativa [2] were 2.6 cm and 2.2 cm, respectively.

As for `O=C(Nc1ccc(Cl)cc1)Oc1ccccc1` [PHENYL 4-CHLOROPHENYLCARBAMATE], the Activity with Avena sativa [1] was 4.1 cm; with Avena sativa [2] it was 8.1 cm.

For the compound `O=C(NCCc1ccccc1)OCc1ccccc1` [BENZYL PHENETHYLCARBAMATE], the Activity with Avena sativa [1] was 2.8 cm; with Avena sativa [2], 5.2 cm.

`O=C(NCSc1ccccc1)Oc1ccc(Cl)cc1Cl` [2,4-DICHLOROPHENYL PHENYLTHIOMETHYLCARBAMATE]: the Activity in the assay on Avena sativa [1] and with Avena sativa [2] was 0 cm each time.

In the case of `O=C(Nc1ccccc1)OCCCc1ccccc1` [3-PHENYLPROPYL PHENYLCARBAMATE], the Activity amounted to 1.9 cm in the assay with Avena sativa [1] and 3.5 cm with Avena sativa [2].

As for `O=C(Nc1ccccc1)Oc1ccccc1` [PHENYL PHENYLCARBAMATE], the Activity in the assay with Avena sativa [1] came to 1.9 cm; in the assay on Avena sativa [2] it was 4.7 cm.

As for `O=C(NCSc1ccccc1)OCc1ccccc1` [BENZYL PHENYLTHIOMETHYLCARBAMATE], the Activity in the assay on Avena sativa [1] and with Avena sativa [2] was 0 cm in each case.

Take `O=C(NCSc1ccccc1)Oc1ccccc1` [PHENYL PHENYLTHIOMETHYLCARBAMATE]: the Activity in the assay on Avena sativa [1] and in the assay on Avena sativa [2] was 0 cm in each case.

Turning to `COc1ccc(NC(=O)Oc2ccccc2)cc1` [PHENYL 4-METHOXYPHENYLCARBAMATE], the Activity is on record as 7.7 cm in the assay on Avena sativa [1] and 8.3 cm in the assay with Avena sativa [2].

For the compound `O=C(Nc1ccccc1)OCc1ccccc1` [BENZYL PHENYLCARBAMATE], the Activity in the assay on Avena sativa [1] came to 1.2 cm; in the assay on Avena sativa [2] it was 2.8 cm.

Turning to `CCCOC(=O)NCSc1ccccc1` [PROPYL PHENYLTHIOMETHYLCARBAMATE], the Activity is reported as 1.4 cm in the assay with Avena sativa [1] and 1.7 cm in the assay with Avena sativa [2].

As for `CC(C)OC(=O)NCSc1ccccc1` [ISOPROPYL PHENYLTHIOMETHYLCARBAMATE], the Activity with Avena sativa [1] and with Avena sativa [2] was 0 cm each time.

The values are drawn from ChEMBL document CHEMBL3044750, “Preparation of N-substituted aryl and alkyl carbamates and their inhibitory effect on oat seed germination” (2002).
